Like-named read-outs stand apart in the source and are kept apart here.
Columns and labels:
[1] = Gelation ability in aqueous solution (visual); assay type: physicochemical; conditions: room temperature
Description: (§1) In order to investigate the gelation ability of the above-described polyhydric alcohol substituted silane derivatives in water, the present inventors visually evaluated the progress of gelation for the 1,3-butylene glycol substituted compound and glycerin substituted compound.
(§2) The gelation ability was evaluated by adding the polyhydric alcohol substituted silane derivative to water or KGM medium to obtain various concentrations, mixing and stirring at room temperature, allowing the solution to stand still, and visually observing the gelation.

[2] = Solubility of polyhydric alcohol substituted silane derivatives in various solvents; assay type: physicochemical; conditions: summary of Table 1
Description: Subsequently, the present inventors evaluated the solubility of the thus obtained polyhydric alcohol substituted silane derivatives in various solvents.
The evaluation of solubility was conducted by adding a polyhydric alcohol substituted silane derivative into various solvents so that the concentration would be 5 weight %, mixing and stirring at room temperature, allowing them to stand still, and visually observing the solution state. The evaluation criteria were as follows.

[3] = Gel formation on mixing the product with the same amount of water; assay type: physicochemical
Description: . Then, the mixture was mixed with stirring at room temperature for 48 hours. After the solid catalyst was separated by filtration, ethanol and acetonitrile were distilled away under reduced pressure, and 4.0 g of transparent viscous liquid was obtained.

[4] = Gelation ability in KGM medium (visual); assay type: physicochemical; conditions: room temperature
Description: as §1, §2

papain = molecular target: T1, papain (Carica papaya, UniProt P00784); assay: Stabilization of papain enzyme activity in solid gel on storage; assay type: biochemical
T1 sequence (P00784 134-345): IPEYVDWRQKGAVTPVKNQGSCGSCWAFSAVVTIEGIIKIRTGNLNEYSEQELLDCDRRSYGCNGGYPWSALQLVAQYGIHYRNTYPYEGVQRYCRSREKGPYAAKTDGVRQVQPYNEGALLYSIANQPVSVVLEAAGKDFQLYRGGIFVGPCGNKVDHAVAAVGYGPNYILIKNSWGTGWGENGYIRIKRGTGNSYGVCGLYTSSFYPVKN
Description: Into 1 g of water, 0.2 g of the propylene glycol substituted silane derivative, (Si—(OCH2CH2CH2OH)4), was dissolved. Into this solution, 0.2 mL of papain solution (4 μg/mL) was added and mixed, and the samples were charged on a 96-hole plate and allowed to stand for a fixed length of time. Similarly, several test samples were prepared, and they were maintained at various temperatures (0° C., 37° C., room temperature, and 50° C.). After 2 hours and after 3 days, the papain enzyme activity of each sample was measured. The enzyme activity was measured with a plate reader after the enzyme substrate, N-carbobenzoxy-phenylarginine-4-methylcoumarinamide (Z-PheArg-MCA), was directly added into the 96-hole plate and allowed to stand for 20 minutes at room temperature. In Comparative Example 5, the papain enzyme activity was measured in the same way as Example 21 except that the propylene glycol substituted silane derivative was not used.
The values of enzyme activity were standardized by setting the enzyme activity of the comparative example sample that had been stored at 0° C. for 2 hours to 100.0.

Molecule: CC(O)CCO[Si](OCCC(C)O)(OCCC(C)O)OCCC(C)O (stereo not drawn) [Si—(OCH2CH2CH2OHCH3)4]
- Appearance (gelation) ([1]; 10.0 % (wt/vol)): Colloidal turbidity, slight thickening after about 1 week
- Appearance (gelation) ([1]; 20.0 % (wt/vol)): Colloidal turbidity, thickening after 2 days, translucent
- Appearance (gelation) ([1]; 30.0 % (wt/vol)): Colloidal turbidity, gelation after 2 days, seeping-out
- Solubility in other organic solvents [2]: excellent solubility in other organic solvents
- Result of mixing the product with the same amount of water [3]: homogeneous transparent gel
- Appearance (gelation) ([4]; 2.9 % (wt/vol)): Transparent solution, slight thickening after 2 hours, pasty
- Appearance (gelation) ([4]; 5.3 % (wt/vol)): Transparent solution, gelation after 1 hour, some
- Appearance (gelation) ([4]; 10.4 % (wt/vol)): Transparent solution, gelation after 12 minutes, some
- Appearance (gelation) ([4]; 19.6 % (wt/vol)): Transparent solution, gelation (ringing gel) after 2
- Appearance (gelation) ([4]; 35.4 % (wt/vol)): Transparent solution, gelation (ringing gel) after 1 minute

Molecule: OCCCO[Si](OCCCO)(OCCCO)OCCCO [Si—(OCH2CH2CH2OH)4]
- Solubility in other organic solvents [2]: excellent solubility in other organic solvents
- Result of mixing the product with the same amount of water ([3]; room temperature): homogeneous transparent gel

Molecule: OCCO[Si](OCCO)(OCCO)OCCO [tetra(2-hydroxyethoxy)silane]
- Result of mixing the product with the same amount of water ([3]; room temperature): homogeneous transparent gel

Molecule: OCC(O)CO[Si](OCC(O)CO)(OCC(O)CO)OCC(O)CO (stereo not drawn) [Glycerin substituted silane derivative, Si—(O—CH2—CHOH—CH2—OH)4]
- Appearance (gelation) ([1]; 10.0 % (wt/vol)): Transparent, thickening after about 1 week, agar-like soft
- Appearance (gelation) ([1]; 20.0 % (wt/vol)): Translucent low-viscosity gel after 1 day, some
- Appearance (gelation) ([1]; 30.0 % (wt/vol)): Gelation after 1 day, some seeping-out ringing gel
- Result of mixing the product with the same amount of water ([3]; room temperature): homogeneous transparent gel
- Appearance (gelation) ([4]; 2.5 % (wt/vol)): Transparent solution, slight thickening after 2 hours, pasty
- Appearance (gelation) ([4]; 5.6 % (wt/vol)): Transparent solution, gelation after 3 hours, some
- Appearance (gelation) ([4]; 11.0 % (wt/vol)): Transparent solution, gelation after 1 hour, some
- Appearance (gelation) ([4]; 21.0 % (wt/vol)): Transparent solution, gelation (ringing gel) after 30
- Appearance (gelation) ([4]; 35.0 % (wt/vol)): Transparent solution, gelation (ringing gel) after 30

B1: Comparative Example 5: papain sample prepared as Example 21 except that the propylene glycol substituted silane derivative was not used (protein, UniProt P00784 134-345, looked up)
Papain: T1 sequence (P00784 134-345)
- Papain enzyme activity (standardized, Comparative Example 5 at 0° C. for 2 hours = 100.0) (papain; After 2 hours, 0° C.): 100.0
- Papain enzyme activity (standardized, Comparative Example 5 at 0° C. for 2 hours = 100.0) (papain; After 2 hours, 37° C.): 98.3
- Papain enzyme activity (standardized, Comparative Example 5 at 0° C. for 2 hours = 100.0) (papain; After 2 hours, 50° C.): 67.1
- Papain enzyme activity (standardized, Comparative Example 5 at 0° C. for 2 hours = 100.0) (papain; After 2 hours, Room temperature): 96.5
- Papain enzyme activity (standardized, Comparative Example 5 at 0° C. for 2 hours = 100.0) (papain; After 3 days, 0° C.): 98.9
- Papain enzyme activity (standardized, Comparative Example 5 at 0° C. for 2 hours = 100.0) (papain; After 3 days, 37° C.): 18.6
- Papain enzyme activity (standardized, Comparative Example 5 at 0° C. for 2 hours = 100.0) (papain; After 3 days, 50° C.): 2.2
- Papain enzyme activity (standardized, Comparative Example 5 at 0° C. for 2 hours = 100.0) (papain; After 3 days, Room temperature): 34.5
